Reference: patent US7015215B2, “Pyrrolo[2,1-c][1,4] benzodiazepines compounds and process thereof” (Council of Scientific and Industrial Research, priority 2003, dated 2006)

What was measured:
[1] = tested on: human tumor cell lines; test: NCI in vitro cytotoxicity SRB assay, mean graph midpoints over the panel; format: cell-based; details: 48 h continuous exposure
Protocol: (§1) Biological Activity: In vitro biological activity studies were carried out at National Cancer Institute (U.S.A.).
(§2) For each compound, dose response curves for each cell line were measured at a minimum of five concentrations at 10 fold dilutions. A protocol of 48 h continuous drug exposure was used, and a sulforhodamine B (SRB) protein assay was used to estimate cell viability or growth. The concentration causing 50% cell growth inhibition (GI50), total cell growth inhibition (TGI, 0% growth) and 50% cell death (LC50, −50% growth) compared with the control was calculated.

[2] = tested on: K-62; test: NCI SRB cytotoxicity, Leukemia K-62; format: cell-based, human; details: K-62, Leukemia, 48 h
Protocol: as §1, §2

[3] = tested on: RPMI-8226; test: NCI SRB cytotoxicity, Leukemia RPMI-8226; format: cell-based, human; details: RPMI-8226, Leukemia, 48 h
Protocol: as §2

[4] = tested on: EKVX; test: NCI SRB cytotoxicity, Non-small-cell lung EKVX; format: cell-based, human; details: 48 h
Protocol: as §1, §2

[5] = tested on: HOP-62; test: NCI SRB cytotoxicity, Non-small-cell lung HOP-62; format: cell-based, human; details: HOP-62, Non-small-cell lung, 48 h
Protocol: as §1, §2

[6] = tested on: HOP-92; test: NCI SRB cytotoxicity, Non-small-cell lung HOP-92; format: cell-based, human; details: HOP-92, Non-small-cell lung, 48 h
Protocol: as §1, §2

[7] = tested on: NCI-H23; test: NCI SRB cytotoxicity, Non-small-cell lung NCI-H23; format: cell-based, human; details: 48 h
Protocol: as §1, §2

[8] = tested on: NCI-H322; test: NCI SRB cytotoxicity, Non-small-cell lung NCI-H322; format: cell-based, human; details: 48 h
Protocol: as §1, §2

[9] = tested on: NCI-H460; test: NCI SRB cytotoxicity, Non-small-cell lung NCI-H460; format: cell-based, human; details: 48 h
Protocol: as §1, §2

[10] = tested on: COLO 205; test: NCI SRB cytotoxicity, Colon COLO 205; format: cell-based, human; details: COLO 205, Colon, 48 h
Protocol: as §1, §2

[11] = tested on: HT-29; test: NCI SRB cytotoxicity, Colon HT-29; format: cell-based, human; details: HT-29, Colon, 48 h
Protocol: as §1, §2

[12] = tested on: KM-12; test: NCI SRB cytotoxicity, Colon KM-12; format: cell-based, human; details: KM-12, Colon, 48 h
Protocol: as §1, §2

[13] = tested on: SF-268; test: NCI SRB cytotoxicity, CNS SF-268; format: cell-based, human; details: SF-268, CNS, 48 h
Protocol: as §1, §2

[14] = tested on: SF-295; test: NCI SRB cytotoxicity, CNS SF-295; format: cell-based, human; details: SF-295, CNS, 48 h
Protocol: as §1, §2

[15] = tested on: SNB-75; test: NCI SRB cytotoxicity, CNS SNB-75; format: cell-based, human; details: SNB-75, CNS, 48 h
Protocol: as §1, §2

[16] = tested on: MALME-3M; test: NCI SRB cytotoxicity, Melanoma MALME-3M; format: cell-based, human; details: 48 h
Protocol: as §1, §2

[17] = tested on: M14; test: NCI SRB cytotoxicity, Melanoma M14; format: cell-based, human; details: 48 h
Protocol: as §1, §2

[18] = tested on: SK-MEL-28; test: NCI SRB cytotoxicity, Melanoma SK-MEL-28; format: cell-based, human; details: SK-MEL-28, Melanoma, 48 h
Protocol: as §1, §2

[19] = tested on: SK-MEL-5; test: NCI SRB cytotoxicity, Melanoma SK-MEL-5; format: cell-based, human; details: SK-MEL-5, Melanoma, 48 h
Protocol: as §1, §2

[20] = tested on: UACC-257; test: NCI SRB cytotoxicity, Melanoma UACC-257; format: cell-based, human; details: UACC-257, Melanoma, 48 h
Protocol: as §1, §2

[21] = tested on: UACC-62; test: NCI SRB cytotoxicity, Melanoma UACC-62; format: cell-based, human; details: UACC-62, Melanoma, 48 h
Protocol: as §1, §2

[22] = tested on: IGROVI; test: NCI SRB cytotoxicity, Ovarian IGROVI; format: cell-based, human; details: 48 h
[23] = tested on: OVCAR-3; test: NCI SRB cytotoxicity, Ovarian OVCAR-3; format: cell-based, human; details: OVCAR-3, Ovarian, 48 h
Protocol: as §1, §2

[24] = tested on: OVCAR-5; test: NCI SRB cytotoxicity, Ovarian OVCAR-5; format: cell-based, human; details: OVCAR-5, Ovarian, 48 h
Protocol: as §1, §2

[25] = tested on: OVCAR-8; test: NCI SRB cytotoxicity, Ovarian OVCAR-8; format: cell-based, human; details: OVCAR-8, Ovarian, 48 h
Protocol: as §1, §2

[26] = tested on: 786-0; test: NCI SRB cytotoxicity, Renal 786-0; format: cell-based, human; details: 786-0, Renal, 48 h
Protocol: as §1, §2

[27] = tested on: ACHN; test: NCI SRB cytotoxicity, Renal ACHN; format: cell-based, human; details: 48 h
Protocol: as §1, §2

[28] = tested on: CAKI-1; test: NCI SRB cytotoxicity, Renal CAKI-1; format: cell-based, human; details: CAKI-1, Renal, 48 h
Protocol: as §1, §2

[29] = tested on: TK-10; test: NCI SRB cytotoxicity, Renal TK-10; format: cell-based, human; details: TK-10, Renal, 48 h
Protocol: as §1, §2

[30] = tested on: UO-31; test: NCI SRB cytotoxicity, Renal UO-31; format: cell-based, human; details: UO-31, Renal, 48 h
Protocol: as §2

[31] = tested on: PC-3; test: NCI SRB cytotoxicity, Prostate PC-3; format: cell-based, human; details: PC-3, Prostate, 48 h
Protocol: as §2

[32] = tested on: DU-145; test: NCI SRB cytotoxicity, Prostate DU-145; format: cell-based, human; details: DU-145, Prostate, 48 h
Protocol: as §2

[33] = tested on: MCF7; test: NCI SRB cytotoxicity, Breast MCF7; format: cell-based, human; details: 48 h
Protocol: as §1, §2

[34] = tested on: NCI/ADR-RES; test: NCI SRB cytotoxicity, Breast NCI/ADR-RES; format: cell-based, human; details: 48 h
Protocol: as §1, §2

[35] = tested on: HS578T; test: NCI SRB cytotoxicity, Breast HS578T; format: cell-based, human; details: 48 h
Protocol: as §1, §2

[36] = tested on: MDA-MB-435; test: NCI SRB cytotoxicity, Breast MDA-MB-435; format: cell-based, human; details: MDA-MB-435, Breast, 48 h
Protocol: as §1, §2

[37] = tested on: BT-549; test: NCI SRB cytotoxicity, Breast BT-549; format: cell-based, human; details: BT-549, Breast, 48 h
Protocol: as §1, §2

SMILES: COc1cc2c(cc1OCCCN1CCN(CCCOc3cc4c(cc3OC)C(=O)N3CCC[C@H]3C=N4)CC1)N=C[C@@H]1CCCN1C2=O [Compound VIb, 1,1′-{[(bispropane-1,N-diyl)piperazine]dioxy}bis[(11aS)-7-methoxy-1,2,3,11a-tetrahydro-5H-pyrrolo[2,1-c][1,4]benzodiazepin-5-one]]
- Log10 GI50 mean graph midpoint (MG_MID) [1]: −5.19
- Log10 LC50 mean graph midpoint (MG_MID) [1]: −4.01
- Log10 TGI mean graph midpoint (MG_MID) [1]: −4.22
- Log GI 50 [2]: −5.76 mol/L
- Log LC 50 [2]: −4.00 mol/L
- Log GI 50 [3]: −6.73 mol/L
- Log LC 50 [3]: −4.00 mol/L
- Log GI 50 [4]: −4.47 mol/L
- Log LC 50 [4]: −4.00 mol/L
- Log GI 50 [5]: −5.14 mol/L
- Log LC 50 [5]: −4.00 mol/L
- Log GI 50 [6]: −6.81 mol/L
- Log LC 50 [6]: −4.00 mol/L
- Log GI 50 [7]: −4.89 mol/L
- Log LC 50 [7]: −4.00 mol/L
- Log GI 50 [8]: −4.57 mol/L
- Log LC 50 [8]: −4.00 mol/L
- Log GI 50 [9]: −5.37 mol/L
- Log LC 50 [9]: −4.00 mol/L
- Log GI 50 [10]: −5.34 mol/L
- Log LC 50 [10]: −4.00 mol/L
- Log GI 50 [11]: −4.46 mol/L
- Log LC 50 [11]: −4.00 mol/L
- Log GI 50 [12]: −4.64 mol/L
- Log LC 50 [12]: −4.00 mol/L
- Log GI 50 [13]: −5.52 mol/L
- Log GI 50 [14]: −4.99 mol/L
- Log LC 50 [14]: −4.00 mol/L
- Log GI 50 [15]: −4.61 mol/L
- Log LC 50 [15]: −4.00 mol/L
- Log GI 50 [16]: −5.39 mol/L
- Log GI 50 [17]: −5.55 mol/L
- Log LC 50 [17]: −4.00 mol/L
- Log GI 50 [18]: −4.48 mol/L
- Log LC 50 [18]: −4.00 mol/L
- Log GI 50 [19]: −5.66 mol/L
- Log LC 50 [19]: −4.50 mol/L
- Log GI 50 [20]: −4.45 mol/L
- Log LC 50 [20]: −4.00 mol/L
- Log GI 50 [21]: −4.68 mol/L
- Log LC 50 [21]: −4.00 mol/L
- Log GI 50 [22]: −5.26 mol/L
- Log LC 50 [22]: −4.00 mol/L
- Log GI 50 [23]: −5.47 mol/L
- Log LC 50 [23]: −4.00 mol/L
- Log GI 50 [24]: −5.06 mol/L
- Log LC 50 [24]: −4.00 mol/L
- Log GI 50 [25]: −4.48 mol/L
- Log LC 50 [25]: −4.00 mol/L
- Log GI 50 [26]: −5.30 mol/L
- Log LC 50 [26]: −4.00 mol/L
- Log GI 50 [27]: −4.47 mol/L
- Log LC 50 [27]: −4.00 mol/L
- Log GI 50 [28]: −4.65 mol/L
- Log LC 50 [28]: −4.00 mol/L
- Log GI 50 [29]: −5.10 mol/L
- Log LC 50 [29]: −4.00 mol/L
- Log GI 50 [30]: −4.27 mol/L
- Log LC 50 [30]: −4.00 mol/L
- Log GI 50 [31]: −5.53 mol/L
- Log LC 50 [31]: −4.00 mol/L
- Log GI 50 [32]: −5.62 mol/L
- Log LC 50 [32]: −4.00 mol/L
- Log GI 50 [33]: −6.01 mol/L
- Log LC 50 [33]: −4.00 mol/L
- Log GI 50 [34]: −4.00 mol/L
- Log LC 50 [34]: −4.00 mol/L
- Log GI 50 [35]: −6.13 mol/L
- Log LC 50 [35]: −4.00 mol/L
- Log GI 50 [36]: −5.37 mol/L
- Log LC 50 [36]: −4.09 mol/L
- Log GI 50 [37]: −5.77 mol/L
- Log LC 50 [37]: −4.00 mol/L

SMILES: COc1cc2c(cc1OCCCCN1CCN(CCCCOc3cc4c(cc3OC)C(=O)N3CCC[C@H]3C=N4)CC1)N=C[C@@H]1CCCN1C2=O [Compound VIc, 1,1′-{[(bisbutane-1,N-diyl)piperazine]dioxy}bis[(11aS)-7-methoxy-1,2,3,11a-tetrahydro-5H-pyrrolo[2,1-c][1,4]benzodiazepin-5-one]]
- Log10 GI50 mean graph midpoint (MG_MID) [1]: −7.70
- Log10 LC50 mean graph midpoint (MG_MID) [1]: −4.47
- Log10 TGI mean graph midpoint (MG_MID) [1]: −5.95
- Log GI 50 [2]: −7.63 mol/L
- Log LC 50 [2]: −4.00 mol/L
- Log GI 50 [3]: −7.81 mol/L
- Log LC 50 [3]: −4.60 mol/L
- Log GI 50 [4]: −6.36 mol/L
- Log LC 50 [4]: −4.00 mol/L
- Log LC 50 [5]: −4.00 mol/L
- Log LC 50 [6]: −4.00 mol/L
- Log LC 50 [7]: −5.59 mol/L
- Log GI 50 [8]: −7.59 mol/L
- Log LC 50 [8]: −4.00 mol/L
- Log LC 50 [9]: −4.00 mol/L
- Log GI 50 [10]: −7.99 mol/L
- Log LC 50 [10]: −6.26 mol/L
- Log GI 50 [11]: −7.89 mol/L
- Log LC 50 [11]: −4.00 mol/L
- Log GI 50 [12]: −7.84 mol/L
- Log LC 50 [12]: −4.67 mol/L
- Log LC 50 [13]: −4.00 mol/L
- Log LC 50 [14]: −4.69 mol/L
- Log GI 50 [15]: −7.94 mol/L
- Log LC 50 [15]: −4.00 mol/L
- Log LC 50 [16]: −7.41 mol/L
- Log GI 50 [17]: −7.60 mol/L
- Log LC 50 [17]: −4.17 mol/L
- Log GI 50 [18]: −7.69 mol/L
- Log LC 50 [18]: −4.00 mol/L
- Log GI 50 [19]: −7.86 mol/L
- Log LC 50 [19]: −6.68 mol/L
- Log GI 50 [20]: −7.65 mol/L
- Log LC 50 [21]: −7.35 mol/L
- Log GI 50 [22]: −6.79 mol/L
- Log LC 50 [22]: −4.00 mol/L
- Log GI 50 [23]: −7.91 mol/L
- Log LC 50 [23]: −4.00 mol/L
- Log GI 50 [24]: −7.92 mol/L
- Log LC 50 [24]: −4.00 mol/L
- Log LC 50 [25]: −4.00 mol/L
- Log LC 50 [26]: −4.00 mol/L
- Log LC 50 [27]: −4.00 mol/L
- Log LC 50 [28]: −4.28 mol/L
- Log GI 50 [29]: −7.69 mol/L
- Log LC 50 [29]: −4.00 mol/L
- Log GI 50 [30]: −6.65 mol/L
- Log LC 50 [30]: −4.00 mol/L
- Log GI 50 [31]: −7.02 mol/L
- Log LC 50 [31]: −4.00 mol/L
- Log GI 50 [32]: −7.60 mol/L
- Log LC 50 [32]: −4.00 mol/L
- Log LC 50 [33]: −4.00 mol/L
- Log GI 50 [34]: −6.47 mol/L
- Log LC 50 [34]: −4.00 mol/L
- Log GI 50 [35]: −7.30 mol/L
- Log LC 50 [35]: −4.00 mol/L
- Log GI 50 [36]: −7.87 mol/L
- Log LC 50 [36]: −7.15 mol/L
- Log GI 50 [37]: −7.68 mol/L
- Log LC 50 [37]: −4.00 mol/L
